From patent US6514971B1, “Cinnoline derivatives and use as medicine” (Zeneca Limited, priority 1996, dated 2003)

Assays:
[1] = J. Karnatak Univ., Sci. (1984), 29, 82-6; cited from earlier work
[2] = target: T1, VEGF receptor tyrosine kinase (Homo sapiens, UniProt P17948); test: In vitro receptor tyrosine kinase inhibition test (VEGF receptor); type: biochemical
T1 construct: encoding most of the cytoplasmic domain, commencing with methionine 783 and including the termination codon; made in house; host or cells: Spodoptera frugiperda Sf21 insect cells (baculovirus); cleared Triton X100 lysate used as enzyme stock
T1 sequence (P17948 781-1338 limits assumed): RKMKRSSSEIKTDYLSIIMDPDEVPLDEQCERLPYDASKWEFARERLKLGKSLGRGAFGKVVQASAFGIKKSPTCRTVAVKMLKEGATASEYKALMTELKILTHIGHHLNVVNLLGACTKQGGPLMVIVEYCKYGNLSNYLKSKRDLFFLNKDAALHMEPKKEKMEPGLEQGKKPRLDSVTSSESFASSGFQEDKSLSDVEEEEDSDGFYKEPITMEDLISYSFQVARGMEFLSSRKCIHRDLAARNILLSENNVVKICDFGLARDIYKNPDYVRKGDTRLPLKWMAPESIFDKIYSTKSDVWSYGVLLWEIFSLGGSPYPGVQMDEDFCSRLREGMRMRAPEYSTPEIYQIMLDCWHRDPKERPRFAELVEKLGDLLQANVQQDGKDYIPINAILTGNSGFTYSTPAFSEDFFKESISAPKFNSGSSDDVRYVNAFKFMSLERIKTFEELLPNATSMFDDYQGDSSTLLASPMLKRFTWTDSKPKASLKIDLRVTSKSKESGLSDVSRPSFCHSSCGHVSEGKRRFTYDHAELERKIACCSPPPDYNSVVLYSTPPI
From the text: (§1) (a) In Vitro Receptor Tyrosine Kinase Inhibition Test
This assay determines the ability of a test compound to inhibit tyrosine kinase activity. […] These may then be expressed in a suitable expression system to obtain polypeptide with tyrosine kinase activity. […] This recombinant construct was co-transfected into insect cells (for example Spodoptera frugiperda 21 (Sf21)) with viral DNA (eg Pharmingen BaculoGold) to prepare recombinant baculovirus.
For expression of cFlt tyrosine kinase activity, Sf21 cells were infected with plaque-pure cFlt recombinant virus at a multiplicity of infection of 3 and harvested 48 hours later. […] The suspension was centrifuged for 10 minutes at 13.000 rpm at 4° C., the supernatant (enzyme stock) was removed and stored in aliquots at −70° C. Each new batch of stock enzyme was titrated in the assay by dilution with enzyme diluent (100 mM Hepes pH 7.4, 0.2 mM Na3VO4, 0.1% v/v Triton X100, 0.2 mM dithiothreitol). For a typical batch, stock enzyme is diluted 1 in 2000 with enzyme diluent and 50 μl of dilute enzyme is used for each assay well.
(§2) A stock of substrate solution was prepared from a random copolymer containing tyrosine, for example Poly (Glu, Ala, Tyr) 6:3:1 (Sigma P3899), stored as 1 mg/ml stock in PBS at −20° C. and diluted 1 in 500 with PBS for plate coating.
(§3) On the day before the assay 100 μl of diluted substrate solution was dispensed into all wells of assay plates (Nunc maxisorp 96-well immunoplates) which were sealed and left overnight at 4° C.
(§4) On the day of the assay the substrate solution was discarded and the assay plate wells were washed once with PBST (PBS containing 0.05% v/v Tween 20) and once with 50 mM Hepes pH7.4.
Test compounds were diluted with 10% dimethylsulphoxide (DMSO) and 25 μl of diluted compound was transferred to wells in the washed assay plates. “Total” control wells contained 10% DMSO instead of compound. Twenty five microliters of 40 mM MnCl2 containing 8 μM adenosine-5′-triphosphate (ATP) was added to all test wells except “blank” control wells which contained MnCl2 without ATP. To start the reactions 50 μl of freshly diluted enzyme was added to each well and the plates were incubated at room temperature for 20 minutes. The liquid was then discarded and the wells were washed twice with PBST. […] Plates were then incubated for 20-60 minutes at room temperature until the optical density value of the “total” control wells, measured at 405 nm using a plate reading spectrophotometer, was approximately 1.0.

[3] = target: T2, epidermal growth factor (EGF) receptor tyrosine kinase (Homo sapiens, UniProt P00533); test: In vitro receptor tyrosine kinase inhibition test (EGF receptor); type: biochemical
T2 construct: made in house; host or cells: insect cells (baculovirus, as for Flt)
From the text: as §1
This assay determines the ability of a test compound to inhibit tyrosine kinase activity. DNA encoding VEGF or epidermal growth factor (EGF) receptor cytoplasmic domains may be obtained by total gene synthesis (Edwards M, International Biotechnology Lab 5(3), 19-25, 1987) or by cloning. These may then be expressed in a suitable expression system to obtain polypeptide with tyrosine kinase activity. […] In the case of the VEGF receptor Flt (Genbank accession number X51602), a 1.7 kb DNA fragment encoding most of the cytoplasmic domain, commencing with methionine 783 and including the termination codon, described by Shibuya et al (Oncogene, 1990, 5: 519-524), was isolated from cDNA and cloned into a baculovirus transplacement vector (for example pAcYM1 (see The Baculovirus Expression System: A Laboratory Guide, L. A. King and R. D. Possee, Chapman and Hall, 1992) or pAc360 or pBlueBacHis (available from Invitrogen Corporation)). This recombinant construct was co-transfected into insect cells (for example Spodoptera frugiperda 21 (Sf21)) with viral DNA (eg Pharmingen BaculoGold) to prepare recombinant baculovirus. (Details of the methods for the assembly of recombinant DNA molecules and the preparation and use of recombinant baculovirus can be found in standard texts for example Sambrook et al, 1989. Molecular cloning—A Laboratory Manual, 2nd edition, Cold Spring Harbour Laboratory Press and O'Reilly et al, 1992, Baculovirus Expression Vectors—A Laboratory Manual. W. H. Freeman and Co. New York). For other tyrosine kinases for use in assays, cytoplasmic fragments starting from methionine 806 (KDR, Genbank accession number L04947) and methionine 668 (EGF receptor, Genbank accession number X00588) may be cloned and expressed in a similar manner.
For expression of cFlt tyrosine kinase activity, Sf21 cells were infected with plaque-pure cFlt recombinant virus at a multiplicity of infection of 3 and harvested 48 hours later. Harvested cells were washed with ice cold phosphate buffered saline solution (PBS) (10 mM sodium phosphate pH7.4, 138 mM NaCl, 2.7 mM KCl) then resuspended in ice cold HNTG/PMSF (20 mM Hepes pH7.5, 150 mM NaCl, 10% v/v glycerol, 1% v/v Triton X100. 1.5 mM MgCl2, 1 mM ethylene glycol-bis(βaminoethyl ether) N,N,N′,N′-tetraacetic acid (EGTA), 1 mM PMSF (phenylmethylsulphonyl fluoride); the PMSF is added just before use from a freshly-prepared 100 mM solution in methanol) using 1 ml HNTG/PMSF per 10 million cells. The suspension was centrifuged for 10 minutes at 13.000 rpm at 4° C., the supernatant (enzyme stock) was removed and stored in aliquots at −70° C. Each new batch of stock enzyme was titrated in the assay by dilution with enzyme diluent (100 mM Hepes pH 7.4, 0.2 mM Na3VO4, 0.1% v/v Triton X100, 0.2 mM dithiothreitol). For a typical batch, stock enzyme is diluted 1 in 2000 with enzyme diluent and 50 μl of dilute enzyme is used for each assay well.
as §2, §3, §4
Test compounds were diluted with 10% dimethylsulphoxide (DMSO) and 25 μl of diluted compound was transferred to wells in the washed assay plates. “Total” control wells contained 10% DMSO instead of compound. Twenty five microliters of 40 mM MnCl2 containing 8 μM adenosine-5′-triphosphate (ATP) was added to all test wells except “blank” control wells which contained MnCl2 without ATP. […]

T2 sequence (P00533 669-1210 limits assumed): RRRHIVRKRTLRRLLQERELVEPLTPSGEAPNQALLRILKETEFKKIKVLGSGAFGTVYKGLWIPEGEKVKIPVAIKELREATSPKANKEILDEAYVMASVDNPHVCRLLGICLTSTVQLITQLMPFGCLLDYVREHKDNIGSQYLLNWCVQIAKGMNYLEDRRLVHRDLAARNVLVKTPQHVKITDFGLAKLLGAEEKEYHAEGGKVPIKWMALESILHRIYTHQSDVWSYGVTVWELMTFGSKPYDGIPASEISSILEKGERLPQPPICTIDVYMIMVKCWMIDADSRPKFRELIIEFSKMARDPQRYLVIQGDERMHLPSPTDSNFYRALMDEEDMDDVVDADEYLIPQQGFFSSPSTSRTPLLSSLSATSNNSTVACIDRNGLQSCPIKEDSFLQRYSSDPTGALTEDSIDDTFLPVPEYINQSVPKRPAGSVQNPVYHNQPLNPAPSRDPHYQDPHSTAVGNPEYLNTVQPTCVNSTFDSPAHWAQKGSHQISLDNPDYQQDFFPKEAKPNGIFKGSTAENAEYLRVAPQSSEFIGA

Row | Structure (SMILES) | anti-inflammatory and antiarthritic activity [1] | activity against VEGF receptor tyrosine kinase [2] | activity against epidermal growth factor (EGF) receptor tyrosine kinase [3]
1 | COc1cc2nncc(Nc3cccc(Cl)c3)c2cc1OC [4-(3-chloroanilino)-6,7-dimethoxycinnoline] | some anti-inflammatory and antiarthritic activity |  | 
2 | COc1ccc(Nc2cnnc3cc(OC)c(OC)cc23)cc1 [4-(4-methoxyanilino)-6,7-dimethoxycinnoline] | some anti-inflammatory and antiarthritic activity |  | 
3 | COc1cc2c(Nc3cc(O)c(C)cc3F)cnnc2cc1OCCCN1CCOCC1 [Example 15, 4-(2-fluoro-5-hydroxy-4-methylanilino)-6-metboxy-7-(3-morpholinopropoxy)cinnoline] |  | good activity | lack of significant activity
